According to patent publication US12269793B2, “Affinity illudofulvene conjugates” (AF Chemicals, LLC, priority 2019, dated 2025):
Read-outs that look alike come from different tables or passages of the source. Where a SMILES comes first, the peptide text is derived from it. [ ]: non-standard residue; d: D form. The star is where a group is joined. X4 = CC1=C(C*)C2=C(C)C3(CC3)[C@@](C)(O)C(=O)C2=C1

Tests used:
Test in all cases: cells
[1] = system: MV522 Target Cell Line (lung-derived adenocarcinoma); conditions: MV522, 48 h, read-out: Mean IC50 value
[2] = system: MV522 Target Cell Line (lung-derived adenocarcinoma); conditions: MV522, 2 h, read-out: Mean IC50 value
[3] = system: 8392B Nontarget Cell Line (hematopoietic); conditions: 2 h
[4] = system: 8392B Nontarget Cell Line (hematopoietic); conditions: 48 h, read-out: Mean IC50 value
[5] = read-out: Mean IC50 value, 8392B Nontarget Cell Line, 2 hr exposure, ± SD, N = 3 unless otherwise indicated

SMILES	IC50 [1]	IC50 [2]	IC50 [3, 5]	other results
CC1=C(Br)C2=C(C)C3(CC3)[C@@](C)(O)C(=O)C2=C1 [Analog 004]	0.6 µM			
CC1=C(CC2CC(C=O)CC(C=O)C2O)C2=C(C)C3(CC3)[C@@](C)(O)C(=O)C2=C1 (stereo partly shown) [Analog 013]		5.1 ± 0.7 µM		
CC1=C2C(=C[C@@]3(C)COCO[C@@H]23)C(=O)[C@](C)(O)C12CC2 [Analog 014]		0.115 ± 0.03 µM	9.65 ± 0.2 µM	
CC(=O)O[C@@]1(C)C(=O)C2=CC(C)=C(CO)C2=C(C)C12CC2 [Analog 015]	0.48 ± 0.11 µM		0.81 ± 0.26 µM	
CC1=C(COCC2=C(C)C=C3C(=O)[C@](C)(O)C4(CC4)C(C)=C32)C2=C(C)C3(CC3)[C@@](C)(O)C(=O)C2=C1 [Analog 017]	0.32 ± 0.06 µM		14.7 ± 0.9 µM	
CC1=C(CO[C@@H]2O[C@@H](CO)[C@H](O)[C@@H](O)[C@@H]2O)C2=C(C)C3(CC3)[C@@](C)(O)C(=O)C2=C1 [Analog 018]		8.8 ± 2.9 µM		
CC1=C(COCC(O)CO)C2=C(C)C3(CC3)[C@@](C)(O)C(=O)C2=C1 (stereo partly shown) [Analog 019]	0.66 ± 0.08 µM	0.47 ± 0.06 µM	> 75 µM	
COC(C)(C)OCC1=C(C)C=C2C(=O)[C@](C)(O)C3(CC3)C(C)=C21 [Analog 021]	0.93 ± 0.25 µM		34.4 ± 9.4 µM	
CC1=C(COCCO)C2=C(C)C3(CC3)[C@@](C)(O)C(=O)C2=C1 [Analog 022]			31.7 ± 1.4 µM	
CC1=C(CSc2ccc(O)cc2)C2=C(C)C3(CC3)[C@@](C)(O)C(=O)C2=C1 [Analog 023]	2.75 ± 0.5 µM	2.9 ± 1.14 µM	> 138 µM	
CC1=C(CSCc2ccccc2)C2=C(C)C3(CC3)[C@@](C)(O)C(=O)C2=C1 [Analog 024]			12.8 ± 2.1 µM	
COC(=O)CSCC1=C(C)C=C2C(=O)[C@](C)(O)C3(CC3)C(C)=C21 [Analog 025]			> 25 µM	
COC(=O)CSCC1=C(C)C(SCC(=O)OC)=C2C(=O)[C@](C)(O)C3(CC3)C(C)=C12 [Analog 030]	> 3 µM			
COC(=O)CSCC1=C(C)C(SCC(=O)OC)C2(O)C(=O)[C@](C)(O)C3(CC3)C(C)=C12 (stereo partly shown) [Analog 031]	> 3 µM			
CC1=C(CSCC(O)CO)C2=C(C)C3(CC3)[C@@](C)(O)C(=O)C2=C1 (stereo partly shown) [Analog 032]		0.6 ± 0.19 µM	> 30 µM	
CC1=C2C=CC=C2C(=O)C2(OCCO2)C12CC2 [Analog 033]	4.6 ± 0.2 µM		29.9 ± 3.3 µM	
CC(=O)OCC1=C(C)C=C2C(=O)[C@](C)(O)C3(CC3)C(C)=C21 [Analog 034]	0.49 ± 0.04 µM		> 100 µM	
CC1=C2C=CC=C2C(=O)C(O)C12CC2 (stereo not shown) [Analog 035]		5.6 ± 0.6 µM	> 150 µM	
CC1=C(CSCC(N)C(=O)O)C2=C(C)C3(CC3)[C@@](C)(O)C(=O)C2=C1 (stereo partly shown) [Analog 037]	29.2 ± 2.3 µM		> 85 µM	

SMILES	IC50 [1]	IC50 [2]	IC50 [3, 5]	other results
CC1=C(CCC(=O)O)C2=C(C)C3(CC3)[C@@](C)(O)C(=O)C2=C1 [Analog 038]		0.75 ± 0.06 µM	24.9 ± 8 µM	
COC(CCC1=C(C)C=C2C(=O)[C@](C)(O)C3(CC3)C(C)=C21)OC [Analog 039]	0.6 ± 0.04 µM		24.6 ± 2.4 µM	
CCOC(CCC1=C(C)C=C2C(=O)[C@](C)(O)C3(CC3)C(C)=C21)OCC [Analog 040]				IC50 [4]: 5.2 ± 0.47 µM
CC1=C2C=CC=C2[C@@H](O)C2(OCCO2)C12CC2 [Analog 060]		19.4 ± 1.8 µM		IC50 ([3]; read-out: Mean IC50 value): 27.6 ± 3 µM
CC1=C2C=C(CO)C=C2C(=O)[C@](C)(O)C12CC2 [Analog 062]	0.66 ± 0.2 µM		37.1 ± 2.3 µM	
CC1=C2C(=CC(CO)=C2CO)C(=O)[C@](C)(O)C12CC2 [Analog 063]	0.58 ± 0.25 µM			
CC(=O)N[C@@H](CSCC1=CC=C2C(=O)[C@](C)(O)C3(CC3)C(C)=C12)C(=O)N[C@@H](C)c1ccccc1 [Analog 065]		6.2 ± 1.1 µM		
CC(=O)OCC1=CC2=C(C)C3(CC3)[C@@](C)(O)C(=O)C2=C1 [Analog 075]		19.6 ± 9.7 µM	62 ± 3.6 µM	
CC(=O)OCC1=C(COC(C)=O)C2=C(C)C3(CC3)[C@@](C)(O)C(=O)C2=C1 [Analog 076]			39.5 ± 7.2 µM	
CC(=O)OCC1=C(CO)C2=C(C)C3(CC3)[C@@](C)(O)C(=O)C2=C1 [Analog 077]		9.2 ± 1.2 µM		
CC(=O)OCC1=C(CO)C=C2C(=O)[C@](C)(O)C3(CC3)C(C)=C21 [Analog 078]		20.4 ± 6.3 µM	> 100 µM	
COCC1=CC2=C(C)C3(CC3)[C@@](C)(O)C(=O)C2=C1 [Analog 079]			> 100 µM	
COCC1=C(C)C=C2C(=O)[C@](C)(O)C3(CC3)C(C)=C21 [Analog 080]		8.8 ± 2.4 µM	> 100 µM	
COCC1=C(CO)C=C2C(=O)[C@](C)(O)C3(CC3)C(C)=C21 [Analog 081]		> 80 µM	> 80 µM	
COCC1=C(COC)C2=C(C)C3(CC3)[C@@](C)(O)C(=O)C2=C1 [Analog 082]		50.6 ± 7.1 µM	> 100 µM	
CC(=O)N[C@@H](CSCC1=C(C)C=C2C(=O)[C@](C)(O)C3(CC3)C(C)=C21)C(=O)N[C@@H](CC(C)C)C(=O)N[C@@H](CC(C)C)C(=O)N[C@@H](C=O)Cc1ccccc1 [Analog 085] (Ac-C(X4)LL[dF]-aldehyde)	> 40 µM	> 40 µM		
CC(=O)N[C@@H](CSCC1=C(C)C=C2C(=O)[C@](C)(O)C3(CC3)C(C)=C21)C(=O)N[C@@H](CC(C)C)C(=O)N[C@H](CC(C)C)C(=O)N[C@H](C=O)CC(C)C [Analog 087] (Ac-C(X4)L[dL]L-aldehyde)	24.7 ± 3.9 µM	> 40 µM	> 40 µM	
CC1=C(CSC[C@H](NC(=O)CC[C@@H](N)C(=O)O)C(=O)NCC(=O)O)C2=C(C)C3(CC3)[C@@](C)(O)C(=O)C2=C1 [Analog 089]	15.5 ± 2.8 µM	19.3 ± 5.7 µM	> 60 µM	
CC1=C(CSCC[C@H](N)C(=O)O)C2=C(C)C3(CC3)[C@@](C)(O)C(=O)C2=C1 [Analog 097]			> 82 µM	

SMILES	IC50 [1]	IC50 [2]	IC50 [3, 5]	other results
CC1=C2C(=O)[C@](C)(CO)C=C2C(=O)[C@](C)(O)C12CC2 [Analog 099]		8.4 ± 1.1 µM	4 ± 0.4 µM	
CC1=C(CSC[C@H](N)C(=O)N[C@@H](CC(N)=O)C(=O)NCC(=O)N[C@@H](CCCNC(=N)N)C(=O)N[C@@H](CS)C(=O)O)C2=C(C)C3(CC3)[C@@](C)(O)C(=O)C2=C1 [Analog 102] (H-C(X4)NGRC-OH)		> 13 µM		
CC(=O)OCC1=C(CO)C=C2C(=O)[C@](C)(OC(C)=O)C3(CC3)C(C)=C21 [Analog 103]	5.9 ± 0.4 µM	31.8 ± 4.9 µM	12.1 ± 2 µM	
CC1=C2C(=CC3=C2COCOC3)C(=O)[C@](C)(O)C12CC2 [Analog 104]			36.4 ± 6.5 µM	
C/C(C=O)=C1\[C@@H](O)C[C@]1(C)[C@H]1CC(C)(C)C[C@@H]1O [Analog 105]	2.1 ± 0.4 µM	7.3 ± 1.2 µM		IC50 ([3]; read-out: Mean IC50 value): > 100 µM
CC1=C2C(=CC(C)(C)[C@@H]2OC(=O)CCCC(=O)O)C(=O)[C@](C)(O)C12CC2 [Analog 106]		5.2 ± 1 µM	> 83 µM	
CC1=C2C(=CC(C)(C)[C@@H]2OC(=O)CCCC(=O)Oc2ccc3c(c2)CCC2C3CC[C@]3(C)C(=O)CCC23)C(=O)[C@](C)(O)C12CC2 (stereo partly shown) [Analog 107]		> 50 µM		IC50 ([3]; read-out: Mean IC50 value): > 50 µM
CC1=C2C(=CC(C)(C)[C@@H]2OC(=O)CCCC(=O)Oc2ccc3c(c2)CCC2C3CC[C@]3(C)C(O)CCC23)C(=O)[C@](C)(O)C12CC2 (stereo partly shown) [Analog 109]		> 50 µM		IC50 ([3]; read-out: Mean IC50 value): > 50 µM
CC1=C(CCC=NO)C2=C(C)C3(CC3)[C@@](C)(O)C(=O)C2=C1 [Analog 115]				IC50 [4]: 0.63 ± 0.06 µM
CC1=C(COC(C)(C)C)C2=C(C)C3(CC3)[C@@](C)(O)C(=O)C2=C1 [Analog 116]		0.4 ± 0.1 µM	7 ± 0.4 µM	
CC1=C2C(=C[C@@](C)(COC(=O)CCCC(=O)O)C2OC(=O)CCCC(=O)O)C(=O)[C@](C)(O)C12CC2 (stereo partly shown) [Analog 117]				IC50 [4]: 0.01 ± 0.002 µM
CC1=C2C(=C[C@@](C)(COC(=O)c3cc([N+](=O)[O-])cc([N+](=O)[O-])c3)C2OC(=O)CCCC(=O)O)C(=O)[C@](C)(O)C12CC2 (stereo partly shown) [Analog 118]			24.5 ± 4.5 µM	
CC1=C(CCC=NNC(N)=O)C2=C(C)C3(CC3)[C@@](C)(O)C(=O)C2=C1 [Analog 121]			15.2 ± 6 µM	
CC1=C(CCC=NNc2ccccc2)C2=C(C)C3(CC3)[C@@](C)(O)C(=O)C2=C1 [Analog 122]			14.5 ± 1.2 µM	
CC1=C(CCC=NNS(=O)(=O)c2ccc(C)cc2)C2=C(C)C3(CC3)[C@@](C)(O)C(=O)C2=C1 [Analog 123]	0.6 ± 0.06 µM			
CC(=O)ON=CCCC1=C(C)C=C2C(=O)[C@](C)(O)C3(CC3)C(C)=C21 [Analog 124]	0.87 ± 0.35 µM		> 30 µM	
CC1=C(C=NO)C2=C(C)C3(CC3)[C@@](C)(O)C(=O)C2=C1 [Analog 126]			> 30 µM	
CC1=C(CCC(O)C#N)C2=C(C)C3(CC3)[C@@](C)(O)C(=O)C2=C1 (stereo partly shown) [Analog 127]		0.87 ± 0.03 µM	> 30 µM	
